Reference: patent US9375005B2, “5-halogenopyrazole indanyl carboxamides” (BAYER CROPSCIENCE AG, priority 2012, dated 2016)

How the values were obtained:
[1] = tested on: Puccinia recondita; test: In vivo preventive test on Puccinia recondita (brown rust on wheat); settings: wheat plants sprayed 24 h before contamination, grading 12 days after contamination
Description: Plants, used as controls, are treated with the mixture of acetone/tween/DMSO/water not containing the active material. After 24 hours, the plants are contaminated by spraying the leaves with an aqueous suspension of Puccinia recondita spores (100 000 spores per ml). […] Grading (% of efficacy) is carried out 12 days after the contamination, in comparison with the control plants.

[2] = tested on: Uromyces appendiculatus; test: In vivo preventive test on Uromyces appendiculatus (bean rust); settings: bean plants sprayed 24 h before contamination, grading 11 days after contamination
Description: Bean plants (“Saxa” variety), sown in starter cups on a 50/50 peat soil-pozzolana substrate and grown at 24° C., are treated at the 2-leaf stage (9 cm height) by spraying with the active ingredient prepared as described above. Plants, used as controls, are treated with the mixture of acetone/tween/DMSO/water not containing the active material. After 24 hours, the plants are contaminated by spraying the leaves with an aqueous suspension of Uromyces appendiculatus spores (150 000 spores per ml). […] Grading (% of efficacy) is carried out 11 days after the contamination, in comparison with the control plants.

[3] = tested on: Alternaria brassicae; test: In vivo preventive test on Alternaria brassicae (leaf spot on radish); settings: dose 500 ppm; radish plants sprayed 24 h before contamination; grading 6 days after contamination vs control plants
Description: Radish plants (“Pernod Clair” variety), sown in starter cups on a 50/50 peat soil-pozzolana substrate and grown at 17° C., are treated at the cotyledon stage by spraying with the active ingredient prepared as described above. Plants, used as controls, are treated with the mixture of acetone/tween/DMSO/water not containing the active material. After 24 hours, the plants are contaminated by spraying the cotyledons with an aqueous suspension of Alternaria brassicae spores (50 000 spores per ml). The spores are collected from a 15-day-old culture. […] Grading (% of efficacy) is carried out 6 days after the contamination, in comparison with the control plants.

[4] = Measurement of log P values by HPLC on reversed phase columns (EEC directive 79/831 Annex V.A8); format: physicochemical
[5] = tested on: Pyrenophora teres; test: In vivo preventive test on Pyrenophora teres (net blotch on barley); settings: barley plants sprayed 24 h before contamination, grading 14 days after contamination
Description: Barley plants (“Plaisant” variety), sown in starter cups on a 50/50 peat soil-pozzolana substrate and grown at 22° C., are treated at the 1-leaf stage (10 cm height) by spraying with the active ingredient prepared as described above. Plants, used as controls, are treated with the mixture of acetone/tween/DMSO/water not containing the active material. After 24 hours, the plants are contaminated by spraying the leaves with an aqueous suspension of Pyrenophora teres spores (12 000 spores per ml). The spores are collected from a 12-day-old culture. […] Grading (% of efficacy) is carried out 14 days after the contamination, in comparison with the control plants.

[6] = tested on: Septoria tritici; test: In vivo preventive test on Septoria tritici (leaf spot on wheat); settings: dose 500 ppm; wheat plants sprayed 24 h before contamination; grading 24 days after contamination
Description: Wheat plants (“Scipion” variety), sown in starter cups on a 50/50 peat soil-pozzolana substrate and grown at 22° C., are treated at the 1-leaf stage (10 cm height) by spraying with the active ingredient prepared as described above. Plants, used as controls, are treated with the mixture of acetone/tween/DMSO/water not containing the active material. After 24 hours, the plants are contaminated by spraying the leaves with an aqueous suspension of cryopreserved Septoria tritici spores (500 000 spores per ml). […] Grading (% of efficacy) is carried out 24 days after the contamination, in comparison with the control plants.

[7] = tested on: Sphaerotheca fuliginea; test: In vivo preventive test on Sphaerotheca fuliginea (powdery mildew on cucurbits); settings: gherkin plants sprayed 24 h before contamination, grading 12 days after contamination
Description: Gherkin plants (“Vert petit de Paris” variety), sown in starter cups on a 50/50 peat soil-pozzolana substrate and grown at 24° C., are treated at the Z11 cotyledon stage by spraying with the active ingredient prepared as described above. Plants, used as controls, are treated with the mixture of acetone/tween/DMSO/water not containing the active material. After 24 hours, the plants are contaminated by spraying the cotyledons with an aqueous suspension of Sphaerotheca fuliginea spores (100 000 spores per ml). The spores are collected from infected plants. The contaminated to gherkin plants are incubated at about 20° C. and at 70-80% relative humidity. Grading (% of efficacy) is carried out 12 days after the contamination, in comparison with the control plants.

SMILES	Eff. % ([1]; dose 500 ppm) [%]	Eff. % ([2]; dose 500 ppm) [%]	Eff. % [3] [%]	logP ([4]; method marked [a])	logP ([4]; method marked [b])	Eff. % ([5]; dose 500 ppm) [%]	Eff. % [6] [%]	Eff. % ([7]; dose 500 ppm) [%]	Eff. % ([1]; dose 100 ppm) [%]	Eff. % ([5]; dose 100 ppm) [%]	Eff. % ([2]; dose 100 ppm) [%]	Eff. % ([7]; dose 100 ppm) [%]
CC1CC(C)(C)c2c(Cl)ccc(NC(=O)c3c(C(F)F)nn(C)c3Cl)c21 (stereo not drawn) [Example 12]	93	96	94	4.6[a];	4.53[b]	–	–	–	–	–	–	–
CCC1Cc2cccc(NC(=O)c3c(C(F)F)nn(C)c3Cl)c2C1 (stereo not drawn) [Example 30]	100	100	–	4.01[a]	–	83	70	–	–	–	–	–
CC1CC2(CC2)c2cccc(NC(=S)c3c(C(F)F)nn(C)c3Cl)c21 (stereo not drawn) [Example 49]	94	100	–	3.85[a]	–	83	71	–	–	–	–	–
CCC1(C)CCc2c(NC(=O)c3c(C(F)F)nn(C)c3Cl)cccc21 (single isomer, unassigned) [Example 53]	100	100	79	4.04[a]	–	80	–	98	–	–	–	–
Cn1nc(C(F)F)c(C(=O)Nc2cccc3c2CCC32CC2)c1Cl [Example 14]	100	100	97	3.58[a]	–	–	–	–	–	–	–	–
CCCON=C1CCc2c(NC(=O)c3c(C(F)F)nn(C)c3F)cccc21 [Example 28]	–	–	71	3.52[a]	–	–	–	–	–	–	–	–
CCC1Cc2c(NC(=S)c3c(C(F)F)nn(C)c3Cl)cccc2C1(C)C (stereo not drawn) [Example 105]	–	–	–	4.58[a]	–	–	–	–	100	70	100	94
CC(C)CC1CCc2c(NC(=O)c3c(C(F)F)nn(C)c3Cl)cccc21 (stereo not drawn) [Example 40]	100	100	97	4.87[a]	–	80	–	–	–	–	–	–
CC(C)C1Cc2cccc(NC(=O)c3c(C(F)F)nn(C)c3Cl)c2C1C (stereo not drawn) [Example 47]	83	86	–	4.68[a]	–	–	80	–	–	–	–	–
CC(C)CC1CCc2c(NC(=O)c3c(C(F)F)nn(C)c3Cl)cccc21 (stereo not drawn) [Example 66]	100	100	97	–	–	80	–	–	–	–	–	–
CC(C)C1Cc2c(NC(=S)c3c(C(F)F)nn(C)c3F)cccc2C1(C)C (stereo not drawn) [Example 95]	–	–	–	4.76[a]	–	–	–	–	98	70	100	100
CCON=C1CCc2c(NC(=O)c3c(C(F)F)nn(C)c3Cl)cccc21 [Example 26]	94	100	72	3.27[a]	–	–	–	–	–	–	–	–
CC(C)C1Cc2c(NC(=S)c3c(C(F)F)nn(C)c3Cl)cccc2C1(C)C (stereo not drawn) [Example 92]	–	–	–	4.9[a]	–	–	–	–	94	70	100	100
CC1CC(CC(C)(C)C)c2cccc(NC(=S)c3c(C(F)F)nn(C)c3F)c21 (stereo not drawn) [Example 87]	98	100	75	5.08[a]	–	–	–	98	–	–	–	–
CCON=C1CC(C)c2c(NC(=O)c3c(C(F)F)nn(C)c3F)cccc21 (stereo not drawn) [Example 83]	88	95	86	3.18[a]	–	83	–	–	–	–	–	–
CC1CCc2cccc(NC(=O)c3c(C(F)F)nn(C)c3Cl)c21 (stereo not drawn) [Example 31]	100	100	–	3.44[a]	–	–	80	–	–	–	–	–
CC1CC(C)(C)c2c(F)ccc(NC(=O)c3c(C(F)F)nn(C)c3Cl)c21 (stereo not drawn) [Example 37]	–	100	97	4.11[a]	–	75	–	100	–	–	–	–
CC(C)C1Cc2cccc(NC(=O)c3c(C(F)F)nn(C)c3Cl)c2C1C (stereo not drawn) [Example 56]	83	86	–	4.68[a]	–	–	80	–	–	–	–	–
CC1CC(C)(C)c2cccc(NC(=O)c3c(C(F)F)nn(C)c3Br)c21 (stereo not drawn) [Example 42]	100	100	–	4.03[a]	–	–	–	100	–	–	–	–
CC(C)CC1CCc2c(NC(=O)c3c(C(F)F)nn(C)c3F)cccc21 (stereo not drawn) [Example 41]	97	100	95	4.59[a]	–	–	–	–	–	–	–	–
CC(C)C1Cc2c(NC(=O)c3c(C(F)F)nn(C)c3Cl)cccc2C1(C)C (stereo not drawn) [Example 6]	100	100	78	4.95[a]	–	–	–	100	–	–	–	–
CCCON=C1CC(C)c2c(NC(=O)c3c(C(F)F)nn(C)c3F)cccc21 (stereo not drawn) [Example 91]	94	100	86	3.67[a]	–	83	–	–	–	–	–	–
CCCCON=C1CCc2c(NC(=O)c3c(C(F)F)nn(C)c3Cl)cccc21 [Example 22]	–	–	86	4.24[a]	–	–	–	–	–	–	–	–
CCC1Cc2c(NC(=S)c3c(C(F)F)nn(C)c3F)cccc2C1(C)C (stereo not drawn) [Example 106]	–	–	–	4.46[a]	–	–	–	–	100	80	94	89
CCCCON=C1CCc2c(NC(=O)c3c(C(F)F)nn(C)c3F)cccc21 [Example 24]	–	–	–	3.96[a]	–	–	80	–	–	–	–	–
CON=C1c2cccc(NC(=O)c3c(C(F)F)nn(C)c3F)c2CC1(C)C (mixture of isomers) [Example 61]	86	–	75	–	–	–	–	–	–	–	–	–
